Experiment [1] addresses T1, Testis-specific serine/threonine-protein kinase 2 (Homo sapiens) (UniProt Q96PF2).
T1 sequence (whole entry): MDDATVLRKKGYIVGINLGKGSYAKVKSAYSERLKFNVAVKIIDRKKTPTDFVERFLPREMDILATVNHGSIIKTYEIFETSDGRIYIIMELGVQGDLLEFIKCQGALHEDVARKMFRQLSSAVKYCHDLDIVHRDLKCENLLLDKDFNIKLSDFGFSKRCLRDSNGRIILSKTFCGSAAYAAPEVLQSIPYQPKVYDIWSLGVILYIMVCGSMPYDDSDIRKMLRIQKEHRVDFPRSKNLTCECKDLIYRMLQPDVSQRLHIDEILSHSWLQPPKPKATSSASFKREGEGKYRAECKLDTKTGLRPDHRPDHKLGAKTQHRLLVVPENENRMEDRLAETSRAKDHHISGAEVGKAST
Nature of the experiment: Selectivity interaction (ProQinase) EUB0000171b TSSK2.

Experiment [2] concerns the target Fibroblast growth factor receptor 3 (Homo sapiens, UniProt P22607). The settings on record: at 10 µM.
Experiment [3] has as its target Serine/threonine-protein kinase MARK2 (Homo sapiens) (UniProt Q7KZI7). Nature of the experiment: Selectivity interaction (Ambit KINOMEscan and KiNATiv profiling in Jurkat cells) EUB0000090b MARK2. It counts as cell-based. The conditions noted are these: at 1 µM.
In experiment [4] the target is T2, Cyclin-dependent kinase 11A (Homo sapiens) (UniProt Q9UQ88).
T2 sequence (whole entry): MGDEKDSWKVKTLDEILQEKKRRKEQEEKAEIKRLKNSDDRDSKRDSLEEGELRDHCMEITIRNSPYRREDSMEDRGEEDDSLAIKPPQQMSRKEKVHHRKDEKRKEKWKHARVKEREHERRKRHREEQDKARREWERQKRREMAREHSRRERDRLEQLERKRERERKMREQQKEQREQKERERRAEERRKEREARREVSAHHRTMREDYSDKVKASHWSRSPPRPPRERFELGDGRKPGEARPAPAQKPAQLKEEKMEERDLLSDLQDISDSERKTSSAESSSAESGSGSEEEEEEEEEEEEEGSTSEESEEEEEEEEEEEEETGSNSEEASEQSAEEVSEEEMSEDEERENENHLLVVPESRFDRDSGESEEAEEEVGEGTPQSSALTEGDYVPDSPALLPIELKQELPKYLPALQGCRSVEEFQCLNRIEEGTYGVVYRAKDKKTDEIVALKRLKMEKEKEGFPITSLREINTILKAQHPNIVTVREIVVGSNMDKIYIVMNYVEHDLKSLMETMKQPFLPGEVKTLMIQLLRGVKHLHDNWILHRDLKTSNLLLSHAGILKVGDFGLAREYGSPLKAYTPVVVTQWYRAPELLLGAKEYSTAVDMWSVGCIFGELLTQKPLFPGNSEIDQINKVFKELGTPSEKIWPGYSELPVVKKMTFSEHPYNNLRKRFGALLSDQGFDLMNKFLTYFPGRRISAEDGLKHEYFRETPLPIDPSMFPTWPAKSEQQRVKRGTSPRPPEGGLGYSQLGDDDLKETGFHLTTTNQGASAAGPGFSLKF
Nature of the experiment: Selectivity interaction (Ambit KINOMEscan and KiNATiv profiling in Jurkat cells) EUB0000090b CDK11A. The settings on record: at 1 µM. It counts as cell-based.

Experiment [5] deals with T3, Serine/threonine-protein kinase Nek5 (Homo sapiens) (UniProt Q6P3R8).
T3 sequence (whole entry): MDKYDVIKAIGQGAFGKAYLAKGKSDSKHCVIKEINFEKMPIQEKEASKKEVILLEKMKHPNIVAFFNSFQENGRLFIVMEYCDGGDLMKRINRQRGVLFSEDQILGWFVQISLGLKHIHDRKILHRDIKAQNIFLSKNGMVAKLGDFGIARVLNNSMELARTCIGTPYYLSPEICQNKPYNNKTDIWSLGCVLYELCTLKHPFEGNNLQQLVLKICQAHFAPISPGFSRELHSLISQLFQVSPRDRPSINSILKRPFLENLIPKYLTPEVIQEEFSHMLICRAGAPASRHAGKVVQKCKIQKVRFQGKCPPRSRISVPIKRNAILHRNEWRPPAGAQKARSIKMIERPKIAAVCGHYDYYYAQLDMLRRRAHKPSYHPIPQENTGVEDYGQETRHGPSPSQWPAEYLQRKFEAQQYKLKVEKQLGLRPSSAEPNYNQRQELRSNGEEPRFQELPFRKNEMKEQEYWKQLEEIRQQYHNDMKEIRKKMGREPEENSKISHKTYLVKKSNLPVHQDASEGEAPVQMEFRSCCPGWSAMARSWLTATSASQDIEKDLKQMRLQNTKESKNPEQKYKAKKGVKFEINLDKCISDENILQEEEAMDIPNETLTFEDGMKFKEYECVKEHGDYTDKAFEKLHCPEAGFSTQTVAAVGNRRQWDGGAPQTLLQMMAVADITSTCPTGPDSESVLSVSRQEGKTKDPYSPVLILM
Nature of the experiment: Selectivity interaction (KinomeScan (DiscoverX)) EUB0000695a NEK5. The settings on record: at 100 nM.

Experiment [6] concerns the target Activin receptor type-2A (Homo sapiens) (UniProt P27037). Nature of the experiment: Selectivity interaction (KinomeScan (DiscoverX)) EUB0000045b ACVR2A.
Experiment [7] deals with Serine/threonine-protein kinase 33 (Homo sapiens) (UniProt Q9BYT3). Nature of the experiment: Selectivity interaction (LanthaScreen Eu Kinase Binding Assay) EUB0001632a STK33. The conditions noted are these: at 10 µM. (In TR-FRET formats the signal depends on donor and acceptor labels being close together.)
Sequence of Serine/threonine-protein kinase 33 (Homo sapiens) (Q9BYT3 whole entry, looked up, the tested form may be a part): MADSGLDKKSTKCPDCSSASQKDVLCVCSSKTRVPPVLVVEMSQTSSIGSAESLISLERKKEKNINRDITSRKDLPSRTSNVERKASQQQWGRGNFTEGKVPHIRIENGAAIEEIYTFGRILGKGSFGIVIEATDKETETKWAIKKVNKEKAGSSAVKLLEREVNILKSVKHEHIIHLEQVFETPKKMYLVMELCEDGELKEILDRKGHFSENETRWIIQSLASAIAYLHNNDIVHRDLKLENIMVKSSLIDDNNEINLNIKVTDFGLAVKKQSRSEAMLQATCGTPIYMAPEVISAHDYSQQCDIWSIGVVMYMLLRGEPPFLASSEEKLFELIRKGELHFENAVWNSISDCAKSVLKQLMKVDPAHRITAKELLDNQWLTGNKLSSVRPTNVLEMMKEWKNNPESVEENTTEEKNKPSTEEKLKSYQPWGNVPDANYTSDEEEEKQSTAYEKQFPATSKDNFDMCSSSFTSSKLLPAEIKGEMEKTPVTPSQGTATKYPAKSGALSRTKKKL
Experiment [8] concerns the target LIM domain kinase 2 (Homo sapiens) (UniProt P53671). Description: Selectivity interaction (Kinase panel (Invitrogen)) EUB0000639a LIMK2. The conditions noted are these: at 200 nM.
For experiment [9], the target named is Death-associated protein kinase 3 (Homo sapiens) (UniProt O43293). Nature of the experiment: Selectivity interaction (KinomeScan (DiscoverX)) EUB0001619a DAPK3. The settings on record: at 1 µM.
Sequence of Death-associated protein kinase 3 (Homo sapiens) (O43293 whole entry, looked up): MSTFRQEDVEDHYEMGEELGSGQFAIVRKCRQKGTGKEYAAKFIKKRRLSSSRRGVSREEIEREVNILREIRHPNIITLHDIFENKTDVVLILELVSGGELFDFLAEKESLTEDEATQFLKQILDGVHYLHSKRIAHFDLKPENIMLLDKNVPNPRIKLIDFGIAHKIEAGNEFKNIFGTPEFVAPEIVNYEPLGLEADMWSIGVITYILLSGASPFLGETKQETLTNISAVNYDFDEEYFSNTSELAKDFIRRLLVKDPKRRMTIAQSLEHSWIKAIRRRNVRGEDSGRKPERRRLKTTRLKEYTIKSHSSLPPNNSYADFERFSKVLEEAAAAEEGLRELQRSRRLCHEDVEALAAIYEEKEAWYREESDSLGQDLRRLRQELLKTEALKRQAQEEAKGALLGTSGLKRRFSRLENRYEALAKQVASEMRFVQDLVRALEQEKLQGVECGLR
The target of experiment [10] is Mitogen-activated protein kinase 1 (Homo sapiens, UniProt P28482). Description: Selectivity interaction (KinomeScan (DiscoverX)) EUB0000618a MAPK1. The settings on record: at 10 µM.
Sequence of Mitogen-activated protein kinase 1 (P28482 whole entry): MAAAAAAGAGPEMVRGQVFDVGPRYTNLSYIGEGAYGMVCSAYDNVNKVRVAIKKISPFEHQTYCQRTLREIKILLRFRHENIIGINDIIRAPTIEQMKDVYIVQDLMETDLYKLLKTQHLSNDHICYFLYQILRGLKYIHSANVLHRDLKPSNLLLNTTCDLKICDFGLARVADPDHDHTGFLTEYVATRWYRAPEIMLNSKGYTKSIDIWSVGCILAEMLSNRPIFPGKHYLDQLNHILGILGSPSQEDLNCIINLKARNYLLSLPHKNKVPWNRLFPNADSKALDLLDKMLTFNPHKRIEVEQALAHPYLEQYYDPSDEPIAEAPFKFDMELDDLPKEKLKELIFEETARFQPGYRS

Sequence of Activin receptor type-2A (Homo sapiens) (P27037 whole entry): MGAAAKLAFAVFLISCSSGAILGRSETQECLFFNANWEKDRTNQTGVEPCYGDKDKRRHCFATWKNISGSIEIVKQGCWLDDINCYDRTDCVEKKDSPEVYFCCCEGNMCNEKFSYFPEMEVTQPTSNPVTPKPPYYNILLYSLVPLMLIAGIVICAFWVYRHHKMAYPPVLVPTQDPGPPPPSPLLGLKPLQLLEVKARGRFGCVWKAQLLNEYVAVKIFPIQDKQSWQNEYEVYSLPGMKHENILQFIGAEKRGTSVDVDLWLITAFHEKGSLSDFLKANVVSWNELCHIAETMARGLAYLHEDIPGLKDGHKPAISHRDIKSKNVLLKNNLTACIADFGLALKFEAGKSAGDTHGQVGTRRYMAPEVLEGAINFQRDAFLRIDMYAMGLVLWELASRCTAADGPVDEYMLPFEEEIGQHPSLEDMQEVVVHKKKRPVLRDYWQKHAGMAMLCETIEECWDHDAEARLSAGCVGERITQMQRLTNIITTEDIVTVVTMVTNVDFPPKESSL
Sequence of Serine/threonine-protein kinase MARK2 (Homo sapiens) (Q7KZI7 whole entry): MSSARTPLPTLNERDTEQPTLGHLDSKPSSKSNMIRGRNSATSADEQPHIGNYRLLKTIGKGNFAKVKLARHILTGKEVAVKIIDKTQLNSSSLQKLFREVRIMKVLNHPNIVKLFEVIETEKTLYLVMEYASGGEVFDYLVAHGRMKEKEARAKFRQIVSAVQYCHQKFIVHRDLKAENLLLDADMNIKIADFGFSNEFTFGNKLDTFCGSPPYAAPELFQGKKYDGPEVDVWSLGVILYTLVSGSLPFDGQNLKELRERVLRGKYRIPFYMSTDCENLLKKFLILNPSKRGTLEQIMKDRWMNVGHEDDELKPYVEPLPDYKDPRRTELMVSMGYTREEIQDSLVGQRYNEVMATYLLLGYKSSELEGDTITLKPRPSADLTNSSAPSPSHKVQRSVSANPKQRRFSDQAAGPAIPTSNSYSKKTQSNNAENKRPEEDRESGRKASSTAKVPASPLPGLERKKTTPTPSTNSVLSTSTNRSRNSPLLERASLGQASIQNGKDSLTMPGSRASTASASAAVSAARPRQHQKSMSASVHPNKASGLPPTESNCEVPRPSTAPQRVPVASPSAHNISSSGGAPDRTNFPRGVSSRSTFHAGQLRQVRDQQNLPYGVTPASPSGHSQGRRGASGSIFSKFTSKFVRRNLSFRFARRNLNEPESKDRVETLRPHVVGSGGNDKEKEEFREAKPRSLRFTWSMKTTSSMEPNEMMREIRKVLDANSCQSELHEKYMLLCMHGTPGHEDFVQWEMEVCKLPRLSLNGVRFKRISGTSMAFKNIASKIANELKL
Sequence of Fibroblast growth factor receptor 3 (P22607 23-806 limits assumed): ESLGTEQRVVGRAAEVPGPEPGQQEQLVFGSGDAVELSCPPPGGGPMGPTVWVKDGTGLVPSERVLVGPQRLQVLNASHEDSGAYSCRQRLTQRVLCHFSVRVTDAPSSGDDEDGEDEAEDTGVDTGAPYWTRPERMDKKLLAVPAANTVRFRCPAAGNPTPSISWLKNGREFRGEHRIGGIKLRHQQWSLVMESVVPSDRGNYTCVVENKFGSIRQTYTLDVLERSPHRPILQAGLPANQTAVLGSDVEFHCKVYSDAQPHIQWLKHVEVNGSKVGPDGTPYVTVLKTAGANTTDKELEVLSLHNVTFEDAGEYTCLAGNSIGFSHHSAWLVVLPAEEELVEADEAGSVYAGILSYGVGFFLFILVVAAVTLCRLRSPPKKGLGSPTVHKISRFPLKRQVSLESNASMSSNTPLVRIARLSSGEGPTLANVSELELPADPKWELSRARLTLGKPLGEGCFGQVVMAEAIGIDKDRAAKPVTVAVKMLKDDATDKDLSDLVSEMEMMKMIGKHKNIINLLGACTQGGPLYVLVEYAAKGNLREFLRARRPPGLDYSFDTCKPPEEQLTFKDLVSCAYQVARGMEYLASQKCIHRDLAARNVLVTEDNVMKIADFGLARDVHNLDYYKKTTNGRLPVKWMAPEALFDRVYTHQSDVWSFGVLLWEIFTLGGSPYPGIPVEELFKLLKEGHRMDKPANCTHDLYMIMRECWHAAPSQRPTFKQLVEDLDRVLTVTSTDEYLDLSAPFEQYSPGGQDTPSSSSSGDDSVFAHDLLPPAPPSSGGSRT
Sequence of LIM domain kinase 2 (Homo sapiens) (P53671 whole entry, looked up, the tested form may be a part): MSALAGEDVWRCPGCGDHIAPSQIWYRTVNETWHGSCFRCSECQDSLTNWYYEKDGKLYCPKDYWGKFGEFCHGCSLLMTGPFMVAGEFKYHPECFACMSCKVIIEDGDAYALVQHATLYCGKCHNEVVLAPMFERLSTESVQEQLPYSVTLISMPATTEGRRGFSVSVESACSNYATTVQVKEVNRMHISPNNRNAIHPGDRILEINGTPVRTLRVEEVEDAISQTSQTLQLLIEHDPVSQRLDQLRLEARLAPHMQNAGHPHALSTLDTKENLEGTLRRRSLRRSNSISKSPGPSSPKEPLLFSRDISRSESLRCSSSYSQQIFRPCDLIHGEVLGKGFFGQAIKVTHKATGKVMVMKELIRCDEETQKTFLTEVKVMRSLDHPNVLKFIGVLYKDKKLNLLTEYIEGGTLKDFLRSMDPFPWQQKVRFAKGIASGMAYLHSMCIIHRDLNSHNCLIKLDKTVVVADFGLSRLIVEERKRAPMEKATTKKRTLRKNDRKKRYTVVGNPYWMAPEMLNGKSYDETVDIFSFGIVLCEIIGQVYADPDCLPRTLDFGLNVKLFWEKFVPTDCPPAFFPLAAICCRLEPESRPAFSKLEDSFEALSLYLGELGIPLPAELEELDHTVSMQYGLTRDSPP

As for `C=CC(=O)Nc1cccc(C(=O)Nc2ccc(Nc3cc(-c4[nH]c(SC)nc4C)ccn3)cc2)c1`, the % of control in experiment [1] (at 1 µM) stood at 90%; in experiment [1] (at 5 µM), 97%.

Compound `Cc1cc([C@@H](C)Nc2ccccc2C(=O)O)c2nc(N3CCOCC3)cc(=O)n2c1` [AZD-6482] registered a % of control in experiment [2] of 83%.

Consider `CN(C)C/C=C/C(=O)Nc1ccc(C(=O)N2CCCC(Nc3ncc(Cl)c(-c4c[nH]c5ccccc45)n3)C2)cc1` (configuration not stated), for which the % of control in experiment [3] worked out at 78%; in experiment [4], 95%.

Consider `Cc1cc(F)c(C(=O)Nc2cccc(-c3nncn3C(C)C)n2)cc1-n1cnc(C2CC2)c1`, for which the % of control in experiment [5] is 91%.

`C=CC(=O)Nc1cc(-n2c(=O)ccc3cnc4ccc(-c5ccc(NS(C)(=O)=O)cc5)cc4c32)ccc1C`: the % of control in experiment [6] (at 1 µM) is 94%; in experiment [6] (at 10 µM), 88%.

On to `Cn1cc(-n2cnc3c(NCc4nc5cc(Cl)c(Cl)cc5[nH]4)nc(N4CCOCC4)nc32)cn1`, for which, in [7], the % of inhibition was -17.6%.

As to `CC[C@@H]1[C@H](F)C(=O)N[C@@H]1COc1nccc2cc(C(N)=O)c(OC)cc12` [ZIMLOVISERTIB], the % of inhibition in [8] turned out to be 1.7%.

Compound `N#Cc1cccc(-c2c[nH]c3ncnc(N4CCOCC4)c23)c1` showed a % of control in [9] of 100%.

As for `O[C@H]1CC[C@H](Nc2ncc3nc(Nc4c(F)cc(F)cc4F)n([C@H]4CCOC4)c3n2)CC1`, the % of control in experiment [10] was determined as 15%.
